From ChEMBL document CHEMBL1135678, “Pyrimidoquinazoline-based antitumor agents. Design of topoisomerase II to DNA cross-linkers with activity against protein kinases” (2002)
The source made the active and inactive calls. No cut-off for these calls is given here.

Legend:
HT-29 [1] = test: Compound tested for cytotoxicity against human cancer cell line (HT-29 colon); type: functional
WiDr = test: Compound tested for cytotoxicity against human cancer cell line (WiDr Colon); type: functional; conditions: read-out: LC50 (the source's name)
OVCAR-3 = test: Compound tested for cytotoxicity against human cancer cell line (Ovcar 3 ovarian); type: functional; conditions: read-out: LC50 (the source's name)
HT-29 [2] = test: Compound tested for cytotoxicity against human cancer cell line (HT-29 colon); Inactive; type: functional, cell-based

SMILES	LC50 (50% lethal concentration) (HT-29 [1])	CC50 (WiDr)	further results
CC(=O)Oc1nc2cc3c(=O)n(C)c(OC(C)=O)nc3cc2c(=O)n1C	19000 nM		
Oc1nc(CCl)nc2cc3c(O)nc(CCl)nc3cc12		5000 nM	
Cn1c(CBr)nc2cc3c(=O)n(C)c(CBr)nc3cc2c1=O	280 nM		
COc1c2nc(CCl)n(C)c(=O)c2c(OC)c2nc(CCl)n(C)c(=O)c12	110 nM		
Cn1c(CCl)nc2cc3c(=O)n(C)c(CCl)nc3cc2c1=O		350 nM	CC50 (OVCAR-3): 2000 nM
CCCn1c(CCl)nc2cc3c(=O)n(CCC)c(CCl)nc3cc2c1=O	800 nM		
COc1c2nc(CCl)n(C)c(=O)c2c(OC)c2c(=O)n(C)c(CCl)nc12	6330 nM		
COCCCn1c(CCl)nc2c(OC)c3c(=O)n(CCCOC)c(CCl)nc3c(OC)c2c1=O			IA (HT-29 [2]): inactive
COCCn1c(CCl)nc2c(OC)c3c(=O)n(CCOC)c(CCl)nc3c(OC)c2c1=O			IA (HT-29 [2]): inactive
Oc1nc(CBr)nc2cc3c(O)nc(CBr)nc3cc12		900 nM	CC50 (OVCAR-3): 850 nM
